# Data published in patent publication US20210332024A1, “MODULATORS OF PIN1 ACTIVITY AND USES THEREOF” (Yeda Research and Development Co. Ltd., priority 2019, published 2021).
# Experiments:
# catalytic domain of Pin1 = target: T1, catalytic domain of Pin1 (Homo sapiens, UniProt Q13526); assay: Intact protein LC/MS labeling of Pin1; format: binding
# T1 construct: The purified catalytic domain of Pin1 was incubated with the fragment library
# Protocol: 993 compounds were transferred to a 384-well plate working copy by combining 0.5 μl of 20 mM stock solution of four or five compounds per well. The catalytic domain of Pin1 (2 μM) in 20 mM Tris, 75 mM NaCl, pH 7.5 was incubated with 200 μM for each compound and moderately shaken for 24 hours at 4° C. The reaction was stopped by the addition of formic acid to 0.4% (v/v) final concentration.
# Liquid chromatography/mass spectroscopy runs were performed on an Acquity™ UPLC® H-class system (Waters) in positive ion mode using electrospray ionization (ESI). UPLC separation was performed on a C4 column (300 Å, 1.7 μM, […]). The column was held at 40° C., and the autosampler at 10° C. Mobile solution A was 0.1% formic acid in water and mobile phase B was 0.1% formic acid in acetonitrile. Run flow was 0.4 ml/minute; and a gradient of 20% B for 2 minutes, increasing linearly to 60% B for 3 minutes, holding at 60% B for 1.5 minutes, changing to 0% B in 0.1 minute and holding at 0% for 1.4 minutes, was used. Desolvation temperature was 500° C. with a flow rate of 1000 liters/hour. The capillary voltage was 0.69 kV and cone voltage 46 V. Raw data was processed using OpenLynx™ software and deconvoluted using the MaxEnt tool. Labeling assignment was performed as described in Resnick et al. [J Am Chem Soc 2019, 141:8951-8968].
# For the screening 2 μl of each of the 448 click products as 50 μM DMSO stocks were transferred into a 384-well plate working plate. 48 μl of catalytic domain of Pin1 (2 μM) in 20 mM Tris (pH 7.5) with 75 mM NaCl were added and moderately shaken and incubated for 15 minutes at room temperature. The reaction was stopped by the addition of formic acid to 0.4% (v/v) final concentration (20 μl). The mixtures were analyzed by liquid chromatography/mass spectroscopy analogously to the electrophile library incubations described herein. Hits were retrospectively analyzed by liquid chromatography/mass spectroscopy (LC-MS) to ensure reaction completion.
# For each measured well, processed peaks were searched to match the mass of unlabeled protein or common small adducts of the unlabeled protein, which were found in the control sample or labeled protein. Labeling percentage for a compound was determined as the labeling of a specific compound divided by the overall detected protein species. Peaks whose mass could not be assigned were discarded from the overall labeling calculation. Data was analyzed using a python script for processing the MaxEnt-deconvoluted spectra. Peaks were normalized from ion counts to percentages, where the highest peak is defined as 100%. The unlabeled protein mass is deduced from a reference well that contains just the protein.
# The purified catalytic domain of Pin1 was incubated with the fragment library (2 μM protein, 200 μM compound; 24 hours at 4° C.), followed by intact protein liquid chromatography/mass-spectrometry (LC/MS) to identify and quantify compound labeling. FIG. 1 depicts an example of a compound identified in this manner.
# Based on the docking predictions, a total of 26 compounds that featured a range of small or bulky aliphatic, arylic, biphenylic or heterocyclic side-chains (structures depicted in FIG. 5), were synthesized or purchased. In order to identify potent binders, the irreversible labeling efficiency of these second-generation compounds was assessed alongside the original screening hits under more stringent conditions, with a 1:1 ratio of protein to compound (2 μM compound; 1 hour at room temperature).
# For further optimization of the lipophilic moiety, an alkyne side chain-bearing analog was prepared, which was derivatized with 448 different azides using copper-catalyzed azide-alkyne cycloaddition (CuAAC).
# [1] = test system: 8988T pancreatic adenocarcinoma cells; assay: Prolonged-treatment cell growth, wild-type 8988T; format: cell-based; details: 1 μM, 6-8 days
# Protocol: The ability of Pin1-3 treatment to induce more pronounced anti-proliferative effects after prolonged treatment (6-8 days) was then assessed. In order to ensure that target engagement was maintained for the duration of the experiment, Pin1-3 was replenished in fresh media every 48 hours.
# The effect of Pin1-binding compounds on 8988T pancreatic adenocarcinoma cells was assessed by incubating cells with 1 μM Pin1-3, and evaluating cell growth relative to cells incubated with vehicle (DMSO) alone. In order to confirm that the effect of Pin1-3 is mediated by Pin1, the experiment was repeated using Pin1 knockout cells.
# Pin1 = target: T2, Pin1 (Mus musculus, UniProt Q9QUR7); assay: In vivo Pin1 engagement, spleen competition pull-down; parameters: species or system mice
# T2 construct: from tissue; host or cells: mouse spleen
# T2 sequence (Q9QUR7 whole entry): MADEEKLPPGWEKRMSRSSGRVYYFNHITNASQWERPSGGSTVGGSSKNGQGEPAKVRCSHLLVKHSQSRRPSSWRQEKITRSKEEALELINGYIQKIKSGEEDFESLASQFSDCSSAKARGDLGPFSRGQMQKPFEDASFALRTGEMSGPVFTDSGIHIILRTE
# Protocol: The in vivo engagement of Pin1 by Pin1-3 was then assessed using Pin1-3-DTB. Mice were treated with either vehicle, 10 mg/kg or 20 mg/kg Pin1-3 by oral gavage (QD) for 3 days, followed by lysis of the spleens for a competition pull-down experiment.
# PDAC organoids = assay: PDAC organoid growth; format: cell-based, human; details: treated for 7 days
# Protocol: Pancreatic ductal adenocarcinoma (PDAC) cells (derived from a human patient) were treated with Pin1-3 for 3 days. PDAC organoids were treated with Pin1-3 for 7 days (day 7 to day 14).
# GST-Pin1 = GST-Pin1 (Homo sapiens, UniProt Q13526); assay: Pin1 substrate activity assay (chymotrypsin-coupled PPIase assay); format: biochemical; details: pre-incubation 12 hours at 4° C.
# GST-Pin1, sequence (Q13526 whole entry): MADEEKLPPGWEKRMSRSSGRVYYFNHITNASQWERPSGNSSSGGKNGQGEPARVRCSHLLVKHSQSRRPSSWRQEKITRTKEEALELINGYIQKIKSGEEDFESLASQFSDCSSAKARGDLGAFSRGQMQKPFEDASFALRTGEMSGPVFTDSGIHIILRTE
# Protocol: Inhibition of Pin1 isomerase activity was determined using the chymotrypsin-coupled PPIase assay, using GST-Pin1 and Suc-Ala-pSer-Pro-Phe-pNA (SEQ ID NO: 2) peptide substrate ([…]), according to procedures described by Yaffe [Science 1997, 278:1957-1960]. GST-Pin1 was pre-incubated with the indicated concentrations of compound for 12 hours at 4° C. in buffer containing 35 mM HEPES (pH 7.8), 0.2 mM DTT, and 0.1 mg/ml BSA (bovine serum albumin). Immediately before the assay was started, chymotrypsin (final concentration of 6 mg/ml), followed by the peptide substrate (Suc-Ala-pSer-Pro-Phe-pNA (SEQ ID NO: 2) peptide substrate, final concentration […]) was added. The apparent Ki value (under the tested conditions) obtained from the PPIase assay was derived from the Cheng-Prusoff equation: […]
# wherein Km is the Michaelis constant for the used substrate, S is the initial concentration of the substrate in the assay, and IC50 is the half-minimal inhibitory concentration of the inhibitor.
# Covalent labeling of Pin1 was confirmed to translate into enzyme inhibition via a fluorescence polarization (FP) competition assay using a FITC-labeled substrate mimetic peptide inhibitor, as well as a chymotrypsin-coupled PPIase assay, using procedures described in Wei et al. [Nat Med 2015, 21:457-466].
# T1 sequence (Q13526 52-163 limits assumed): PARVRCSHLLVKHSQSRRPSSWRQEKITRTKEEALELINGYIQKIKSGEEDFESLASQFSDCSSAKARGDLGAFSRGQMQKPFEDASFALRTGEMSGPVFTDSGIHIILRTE
smiles,measurement,setting,value
"CC(C)(C)CN(C(=O)CCl)C1CCS(=O)(=O)C1 (stereo not shown) [Pin1-3, 2-chloro-N-(sulfolan-3-yl)-N-neopentylacetamide]",Labeling [%],catalytic domain of Pin1; 2 μM Pin1 with 2 μM test compound for 15 minutes at room temperature,10%
same,Labeling [%],catalytic domain of Pin1; 2 μM Pin1 with 2 μM test compound for 1 hour at room temperature,48%
same,Cell viability / growth,[1],reduced pancreatic cancer cell viability
same,Mice with effective Pin1 engagement,Pin1; 10 mg/kg oral gavage QD for 3 days,1 of the 3 mice
same,Mice with effective Pin1 engagement,Pin1; 20 mg/kg oral gavage QD for 3 days,all 3 mice
same,PDAC organoid growth,PDAC organoids,inhibited PDAC organoid growth in a dose-dependent manner
same,IC50,GST-Pin1,103 nM
